Test results from PubChem BioAssay (NCI).
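Protocol summary: plate cells (96-well), add compound at 5 concentrations, incubate 48 h, interpolate endpoints linearly. TGI denotes the concentration required for complete inhibition of growth.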

Legend:
Experiment in all cases: DTP human tumour cell line panel, 48 h
[1] = system: 786-0 renal
[2] = system: A498 renal
[3] = system: A549 NSCLC
[4] = system: ACHN renal
[5] = system: BT-549 breast
[6] = system: CAKI-1 renal
[7] = system: CCRF-CEM leukemia
[8] = system: COLO 205 colon
[9] = system: DU-145 prostate
[10] = system: HCC-2998 colon
[11] = system: HCT-116 colon
[12] = system: HCT-15 colon
[13] = system: HL-60(TB) leukemia
[14] = system: HOP-62 NSCLC
[15] = system: HS 578T breast
[16] = system: HT29 colon
[17] = system: IGROV1 ovarian
[18] = system: K-562 leukemia
[19] = system: KM12 colon
[20] = system: LOX IMVI melanoma
[21] = system: M14 melanoma
[22] = system: MALME-3M melanoma
[23] = system: MCF7 breast
[24] = system: MDA-MB-231 breast
[25] = system: MDA-MB-435
[26] = system: MDA-N
[27] = system: MOLT-4 leukemia
[28] = system: NCI-H226 lung
[29] = system: NCI-H23 lung
[30] = system: NCI-H460 lung
[31] = system: NCI-H522 lung
[32] = system: NCI/ADR-RES ovarian
[33] = system: OVCAR-3 ovarian
[34] = system: OVCAR-4 ovarian
[35] = system: OVCAR-5 ovarian
[36] = system: OVCAR-8 ovarian
[37] = system: PC-3 prostate
[38] = system: RPMI-8226 leukemia
[39] = system: RXF 393 renal
[40] = system: SF-268 CNS
[41] = system: SF-295 CNS
[42] = system: SF-539 CNS
[43] = system: SK-MEL-2 melanoma
[44] = system: SK-MEL-28 melanoma
[45] = system: SK-MEL-5 melanoma
[46] = system: SK-OV-3 ovarian
[47] = system: SN12C renal
[48] = system: SNB-19 CNS
[49] = system: SNB-75 CNS
[50] = system: SR leukemia
[51] = system: SW-620 colon
[52] = system: T-47D breast
[53] = system: TK-10 renal
[54] = system: U251 CNS
[55] = system: UACC-257 melanoma
[56] = system: UACC-62 melanoma
[57] = system: UO-31 renal
[58] = system: EKVX NSCLC

`COC1=C(Br)[C@H](O)[C@@]2(C=C1Br)CC(C(=O)NCCCOc1c(Br)cc(C(O)CNC(C)=O)cc1Br)=NO2` (stereo partly drawn) gave a TGI [1] greater than 10 µM, a TGI [2] greater than 10 µM and a TGI [3] greater than 10 µM. The TGI [4] was greater than 10 µM, the TGI [5] was greater than 10 µM and the TGI [6] was greater than 10 µM. For the same compound, the TGI [7] was greater than 10 µM, the TGI [8] was greater than 10 µM and the TGI [9] was greater than 10 µM. The TGI [10] was greater than 10 µM, the TGI [11] was greater than 10 µM and the TGI [12] was greater than 10 µM. For the same compound, the TGI [13] was greater than 10 µM, the TGI [14] was greater than 10 µM and the TGI [15] was greater than 10 µM. For the same compound, the TGI [16] was greater than 10 µM, the TGI [17] was greater than 10 µM and the TGI [18] was greater than 10 µM. The TGI [19] was greater than 10 µM, the TGI [20] was greater than 10 µM and the TGI [21] was greater than 10 µM. The TGI [22] was greater than 10 µM, the TGI [23] was greater than 10 µM and the TGI [24] was greater than 10 µM. The TGI [25] was 5.12 µM, the TGI [26] was 4.4 µM and the TGI [27] was greater than 10 µM. The TGI [28] was greater than 10 µM, the TGI [29] was greater than 10 µM and the TGI [30] was greater than 10 µM. It also gave a TGI [31] greater than 10 µM, a TGI [32] greater than 10 µM and a TGI [33] greater than 10 µM. The TGI [34] was greater than 10 µM, the TGI [35] was greater than 10 µM and the TGI [36] was greater than 10 µM. The TGI [37] was greater than 10 µM, the TGI [38] was greater than 10 µM and the TGI [39] was greater than 10 µM. For the same compound, the TGI [40] was greater than 10 µM, the TGI [41] was greater than 10 µM and the TGI [42] was greater than 10 µM. For the same compound, the TGI [43] was greater than 10 µM, the TGI [44] was greater than 10 µM and the TGI [45] was greater than 10 µM. The TGI [46] was greater than 10 µM, the TGI [47] was greater than 10 µM and the TGI [48] was greater than 10 µM. The TGI [49] was greater than 10 µM, the TGI [50] was 1.77 µM and the TGI [51] was greater than 10 µM. For the same compound, the TGI [52] was greater than 10 µM, the TGI [53] was greater than 10 µM and the TGI [54] was greater than 10 µM. It also gave a TGI [55] greater than 10 µM, a TGI [56] greater than 10 µM and a TGI [57] greater than 10 µM.

`CN(C)CCCn1cnc2cc(Cl)c(Cl)cc21` gave a TGI [1] greater than 100 µM, a TGI [2] greater than 100 µM and a TGI [3] greater than 100 µM. For the same compound, the TGI [4] was greater than 100 µM, the TGI [5] was greater than 100 µM and the TGI [6] was greater than 100 µM. It also gave a TGI [7] greater than 100 µM, a TGI [8] greater than 100 µM and a TGI [9] greater than 100 µM. For the same compound, the TGI [58] was greater than 100 µM, the TGI [10] was 40.6 µM and the TGI [11] was greater than 100 µM. The TGI [12] was greater than 100 µM, the TGI [13] was greater than 100 µM and the TGI [14] was greater than 100 µM. For the same compound, the TGI [15] was greater than 100 µM, the TGI [16] was greater than 100 µM and the TGI [17] was greater than 100 µM. It also gave a TGI [18] greater than 100 µM, a TGI [19] greater than 100 µM and a TGI [20] greater than 100 µM. The TGI [21] was 36.1 µM, the TGI [22] was greater than 100 µM and the TGI [23] was greater than 100 µM. For the same compound, the TGI [24] was greater than 100 µM, the TGI [25] was greater than 100 µM and the TGI [26] was greater than 100 µM. For the same compound, the TGI [28] was greater than 100 µM, the TGI [29] was greater than 100 µM and the TGI [30] was greater than 100 µM. The TGI [31] was greater than 100 µM, the TGI [32] was greater than 100 µM and the TGI [33] was greater than 100 µM. The TGI [34] was greater than 100 µM, the TGI [35] was greater than 100 µM and the TGI [36] was greater than 100 µM. The TGI [37] was greater than 100 µM, the TGI [38] was greater than 100 µM and the TGI [39] was greater than 100 µM. It also gave a TGI [40] greater than 100 µM, a TGI [41] greater than 100 µM and a TGI [43] greater than 100 µM. It also gave a TGI [44] of 41.8 µM, a TGI [45] greater than 100 µM and a TGI [46] greater than 100 µM. The TGI [47] was greater than 100 µM, the TGI [48] was greater than 100 µM and the TGI [49] was 98.9 µM. For the same compound, the TGI [50] was greater than 100 µM, the TGI [51] was greater than 100 µM and the TGI [52] was greater than 100 µM. It also gave a TGI [53] greater than 100 µM, a TGI [54] greater than 100 µM and a TGI [55] of 40.7 µM. It also gave a TGI [56] of 82.2 µM and a TGI [57] greater than 100 µM.
